Values of other authors, collected in patent US20080131492A1, “Dosage forms for movement disorder treatment” (Spherics, Inc., priority 2006, published 2008).

Conditions: doses of 400 mg per day

In the case of `C[C@@](Cc1ccc(O)c(O)c1)(NN)C(=O)O` [carbidopa], the adverse effects is given as “fails to elicit adverse effects”.
